pIC50: −log10 of the molar value.

For one data set, the system named is MCF-7 cells. As to the kind of experiment: Mitochondrial oxygen consumption rate (OCR), Seahorse XFe96. The format is cell-based, human. Conditions: MCF-7, Seahorse, FIGS. 6-8. The source says:
Some embodiments of the present approach relate to identifying TPP-derivatives compounds that target mitochondria in CSCs and represent potential anti-cancer therapies. To further validate that the ATP level reduction of the TPP compounds was indeed due to the inhibition of mitochondrial function, we directly measured mitochondrial oxygen consumption rates (OCR) using the Seahorse XFe96 metabolic flux analyser.
FIG. 6 illustrates the impaired mitochondrial function of MCF-7 cells after treatment with TPP Compound 1. FIGS. 7A and 7B illustrate the impaired mitochondrial function of MCF-7 cells after treatment with either TPP Compound 2 or TPP Compound 3. […] Oxygen consumption rate (OCR) was measured with a Seahorse XF96 Extracellular Flux Analyzer. Data are represented as mean+/−SEM. […] For FIG. 6, **p<0.01; ***p<0.001; indicates significance, all relative to the control. […] For FIG. 7, **p<0.01; ***p<0.001; indicates significance, all relative to the control. […] And for FIG. 8, **p<0.01; ***p<0.001; indicates significance, all relative to the control.
For measuring the mitochondrial OCR, mitochondrial function was determined by using the XF Cell Mito Stress Test Kit (Seahorse Bioscience, MA, USA) with a Seahorse XFe96 Extracellular Flux Analyzer (Seahorse Bioscience, MA, USA). MCF-7 cells were seeded in a specialized 96-well tissue culture plate (XF96 microplate). The next day, the TPP derivatives were added and the plate was incubated for 72 hours. Before the experiment media was changed to XF base medium (including 1 mM pyruvate, 2 mM glutamine and 10 mM glucose), cells were incubated at 37° C. in a CO2-free atmosphere for one hour before measurement. After detection of basal OCR (an indicator for mitochondrial respiration) OCR responses were evaluated towards the application of oligomycin (1 μM), FCCP (600 nM), and the combination of antimycin (1 μM) and rotenone (1 μM). From these measurements various parameters of mitochondrial function were determined. To determine cell viability in the measured wells sulphorodamine (SRB) assay was performed. Oxygen consumption rate values were then normalized to the given SRB values.

Data set [1] relates to MCF-7 human breast cancer cells. As to the kind of experiment: ATP-depletion assay (CellTiter-Glo & Hoechst 33342) in MCF-7 cells. The format is cell-based. Conditions: for effect on ATP levels in initial screen (positive hit): MCF-7, ATP depletion screen of nine TPP-derivatives; for effect on ATP levels in validation (FIGS. 2-4): MCF-7 treated for 72 h; for Hoechst staining (%) / ATP level (%): MCF-7 cell line, 50 μM treatment for 72 hours, normalized to control; for Hoechst staining (%): cell viability. From the text: In order to identify new molecules that can be used to target mitochondria within CSCs, the inventors screened a variety of TPP-derivatives as described herein, by employing CellTiter-Glo to measure intracellular levels of ATP in adherent cancer cells (MCF-7) in 96-well plates. As 85% of cellular ATP is normally derived from mitochondrial metabolism, ATP levels are an excellent read-out to monitor mitochondrial function. In parallel, the same 96-well plates were also stained with Hoechst 33342, to measure DNA content, to gauge cell viability. Therefore, we randomly selected 9 TPP derivatives and subjected them to screening in our assay system.
With respect to the ATP-depletion assay (with CellTiter-Glo & Hoechst 33342), MCF-7 cells were treated with different TPP derivatives for 72 hours in a black 96-well plate then wells were washed with PBS and were stained with Hoechst 33342 dye at a final concentration of 10 μg/ml. Fluorescence was read by a plate reader at 355 nm (excitation), 460 nm (emission). After washing with PBS CellTiterGlo luminescent assay (Promega) was performed according to the manufacturer's protocols to determine intracellular ATP levels in the Hoechst dye stained cells. Both the fluorescent and luminescent data were normalized to control levels and were shown as percentage for comparison.
A general note: Cellular ATP, detected with luciferase, serves as a proxy for viable cell number.

The next data set has as its system MCF-7 breast CSCs. As to the kind of experiment: 3D Spheroid (mammosphere) assay, CSC propagation. The format is cell-based, human. As to conditions: MCF-7, treated for 5 days in mammosphere media; read-out: IC-50, CSC propagation (mammosphere formation). The method, then:
Following validation, the inventors evaluated the effects of these TPP-derivative compounds on the propagation of CSCs, using the mammosphere assay as a read-out. […] The data presented in FIG. 9, from left to right, are TPP-derivatives in the following order: 2,4-dichlorobenzyl-TPP (black); 1-naphthylmethyl-TPP (inclined lines); 3-methylbenzyl-TPP (dotted lines); 2-chlorobenzyl-TPP (white); 2-butene-1,4-bis-TPP (horizontal lines). Cells were treated for 5 days in mammosphere media. Data are represented as mean+/−SEM.
For the 3D Spheroid (mammosphere) assay, a single cell suspension of MCF-7 cells was prepared using enzymatic (lx Trypsin-EDTA, Sigma Aldrich, #T3924) and manual disaggregation (25 gauge needle) to create a single cell suspension. […] Different TPP derivatives were previously diluted in the mammosphere media before addition of cells. […] After 5 days of culture, spheres >50 μm were counted using an eyepiece graticule and mammosphere numbers were normalized to control treatments (cells treated with vehicle only).

The test system of data set [2] is normal fibroblasts (hTERT-BJ1). Kind of data set: Cell viability (Hoechst) and intracellular ATP levels in normal fibroblasts. The format is cell-based, human. Conditions: hTERT-BJ1, 1 μM, 72 h. The protocol:
Cell viability and intracellular ATP levels were determined in the same treated samples. Hoechst staining (%) of hTERT-BJ1 human fibroblasts (black); ATP level (%) of hTERT-BJ1 human fibroblasts (dotted); Hoechst staining (%) of MCF-7 cells (inclined lines); ATP level (%) of MCF-7 cells (white). TPP treatments at 1 μM, 72 h. Data are represented as mean+/−SEM. *p<0.05; **p<0.01; indicates significance, all relative to the control.
With respect to cell culture and reagents, the human breast adenocarcinoma cell line (MCF-7) was from the American Type Culture Collection (ATCC). hTERT-BJ1 cells were from Clontech, Inc. MCF-7 and hTERT-BJ1 cells were grown in DMEM supplemented with 10% fetal bovine serum, GlutaMAX and 1% penicillin-streptomycin and incubated at 37 C in a humidified 5% CO2 incubator. The medium was changed 2-3 times/week. […]
With respect to the ATP-depletion assay (with CellTiter-Glo & Hoechst 33342), MCF-7 cells were treated with different TPP derivatives for 72 hours in a black 96-well plate then wells were washed with PBS and were stained with Hoechst 33342 dye at a final concentration of 10 μg/ml. Fluorescence was read by a plate reader at 355 nm (excitation), 460 nm (emission). […]

For `Clc1ccc(C[P+](c2ccccc2)(c2ccccc2)c2ccccc2)c(Cl)c1` [2,4-dichlorobenzyl-TPP], the “effect on mitochondrial oxygen consumption” value in the data set with MCF-7 cells is “effectively inhibit mitochondrial oxygen consumption”. Also, in data set [1], the “effect on ATP levels in initial screen (positive hit)” value (“effect on ATP levels … (positive hit)” for short) is given as “significantly reduced ATP levels” and the “effect on ATP levels in validation (FIGS. 2-4)” value (“effect … (FIGS. 2-4)” below) is reported as “progressively deplete cellular ATP levels”.
In the case of `c1ccc([P+](Cc2cccc3ccccc23)(c2ccccc2)c2ccccc2)cc1` [1-naphthylmethyl-TPP], the pIC50 in the data set with MCF-7 breast CSCs is less than 5.30. For the same compound, in the data set with MCF-7 cells, the “effect on mitochondrial oxygen consumption” value was “effectively inhibit mitochondrial oxygen consumption”. Further, in data set [1], the “effect on ATP levels … (positive hit)” value is on record as “significantly reduced ATP levels” and the “effect … (FIGS. 2-4)” value is given as “progressively deplete cellular ATP levels”.
Regarding `Cc1cccc(C[P+](c2ccccc2)(c2ccccc2)c2ccccc2)c1` [3-methylbenzyl-TPP], the “effect on mitochondrial oxygen consumption” value in the data set on MCF-7 cells was “effectively inhibit mitochondrial oxygen consumption”. Further, in data set [1], the “effect on ATP levels … (positive hit)” value is given as “significantly reduced ATP levels” and the “effect … (FIGS. 2-4)” value is “progressively deplete cellular ATP levels”.
In the case of `C(=CC[P+](c1ccccc1)(c1ccccc1)c1ccccc1)C[P+](c1ccccc1)(c1ccccc1)c1ccccc1` [2-butene-1,4-bis-TPP], in the data set with MCF-7 breast CSCs, the pIC50 was more than 6.30. In data set [2], the “effect on cell viability in human fibroblasts” value is listed as “no effect on cell viability” and the “reduction of ATP levels in human fibroblasts” value was 25%. Besides, the “effect on mitochondrial oxygen consumption” value in the data set on MCF-7 cells is listed as “effectively inhibits mitochondrial oxygen consumption”. Also, in data set [1] (MCF-7, 1 μM, 72 h), the “decrease of ATP levels in MCF-7 cancer cells” value was approximately 85% and the “reduction of cell viability in MCF-7 cancer cells” value is reported as approximately 65%. Further, in data set [1], the “effect on ATP levels … (positive hit)” value is reported as “significantly reduced ATP levels” and the “effect … (FIGS. 2-4)” value was “depletes ATP levels, relative to cell number”. Also, in data set [1] (MCF-7 versus hTERT-BJ1, 1 μM), the “fold more effective at reducing ATP levels in cancer cells, relative to normal fibroblasts” value was found to be 4.7 fold and the “fold more effective at reducing cell viability in cancer cells (versus fibroblasts)” value came out at 2.8 fold.
For `Clc1ccccc1C[P+](c1ccccc1)(c1ccccc1)c1ccccc1` [2-chlorobenzyl-TPP], the “effect on mitochondrial oxygen consumption” value in the data set on MCF-7 cells is “effectively inhibit mitochondrial oxygen consumption”. Besides, in data set [1], the “effect on ATP levels … (positive hit)” value is reported as “significantly reduced ATP levels” and the “effect … (FIGS. 2-4)” value is reported as “progressively deplete cellular ATP levels”.
As for `c1ccc([P+](Cc2ccc(C[P+](c3ccccc3)(c3ccccc3)c3ccccc3)cc2)(c2ccccc2)c2ccccc2)cc1` [p-xylylenebis-TPP, p-xylylene-bis-TPP], in data set [1], the “Hoechst staining (%)” value was found to be 69.1% and the “ATP level (%)” value worked out at 43.9%.
As for `N#CC[P+](c1ccccc1)(c1ccccc1)c1ccccc1` [cyanomethyl-TPP], in data set [1], the “Hoechst staining (%)” value is reported as 97.2% and the “ATP level (%)” value is on record as 95.1%.
Consider `N#Cc1ccc(C[P+](c2ccccc2)(c2ccccc2)c2ccccc2)cc1` [4-cyanobenzyl-TPP], for which, in data set [1], the “Hoechst staining (%)” value was 72.7% and the “ATP level (%)” value is listed as 68.2%.
For `CC1(C)CC(NC(=O)C[P+](c2ccccc2)(c2ccccc2)c2ccccc2)CC(C)(C)N1[O]` [mito-TEMPO, (2-(2,2,6,6-Tetramethylpiperidin-1-oxyl-4-ylamino)-2-oxoethyl)triphenylphosphonium chloride, reference compound] the same measures were 100.0% and 100.0%.

(Values after patent US11738034B2, “Triphenylphosphonium-derivative compounds for eradicating cancer stem cells” (LUNELLA BIOTECH, INC., priority 2017, dated 2023).)
